The numbers were not newly measured in patent US5008416A, “Organogermanium compound, process for the preparation of same as well as use thereof” (Sanwa Kagaku Kenkyusho Co., Ltd., priority 1989, dated 1991), which cites them from elsewhere.

For data set [1] the following is noted: Jap. Pat. No. Sho 61-151123(A), U.S. Pat. No. 4,889,715, EP 0186505; cited from earlier work.
For data set [2] the following is noted: Cancer Res., Vol. 42, page 2852 (1982); cited from earlier work.

For the compound 3-oxygermylpropionic acid polymer, the “Immunomodulating activity (result in words)” value in data set [1] is given as “shows an excellent immunomodulating activity”.
For `C[CH2][Ge]1([CH2]C)[CH2]CC2(CCN(CCCN(C)C)C2)C[CH2]1` [Spirogermanium], the “Anti-cancer or antitumor activity (result in words)” value in data set [2] is given as “shows an anti-cancer or antitumor activity”.
